Assays:
Type in all cases: cell-based, human
[1] = system: mesothelioma (H226) cancer cell line; experiment: 72 hr ATP luminescence cell proliferation inhibition assay, H226
Protocol: (§1) Proliferation inhibition was measured using a 72 hr ATP luminescence assay (Cheng et al., U.S. Pat. No. 8,394,922 B2 (2013)). The antiproliferative effects are reported as IC50's, i.e., the concentration of compound that produces a 50% inhibitory effect on cell proliferation.

[2] = system: gastric (stomach) cancer (N87) cell line; experiment: 72 hr ATP luminescence cell proliferation inhibition assay, N87; details: N87 cells
Protocol: as §1

[3] = system: colon cancer (HCT116) cell line; experiment: 72 hr ATP luminescence cell proliferation inhibition assay, HCT116
Protocol: as §1

[4] = system: ovarian cancer (OVCAR3) cell line; experiment: 72 hr ATP luminescence cell proliferation inhibition assay, OVCAR3
Protocol: as §1

Row | Structure (SMILES) | IC50 ([1]; H226 cells) [nM] | IC50 [2] [nM] | IC50 ([3]; HCT116 cells) [nM] | IC50 ([4]; OVCAR3 cells) [nM] | IC50 ([1]; Homo sapiens, NCI-H226, H226 cells) [nM] | IC50 ([2]; Homo sapiens) [nM] | IC50 ([3]; Homo sapiens, HCT-116, HCT116 cells) [nM] | IC50 ([4]; Homo sapiens, OVCAR-3, OVCAR3 cells) [nM]
1 | COc1cc2c(cc1OCCCC(=O)Nc1ccc(C(=O)Nc3ccccc3)cc1)N=C[C@@H]1Cc3ccccc3CN1C2=O [(Ib-01)] | 1.2 | 0.65 | 0.73 | 0.38 |  |  |  | 
2 | COc1cc2c(cc1OCCCC(=O)Nc1ccccc1C(=O)Nc1ccccc1)N=C[C@@H]1Cc3ccccc3CN1C2=O [(Ib-02)] | < 250 | 93 | < 250 | 140 |  |  |  | 
3 | COc1cc2c(cc1OCCCC(=O)Nc1cccc(C(=O)Nc3ccccc3)c1)N=C[C@@H]1Cc3ccccc3CN1C2=O [(Ib-03)] | 9.4 | 2.4 | 6.9 | 3.1 |  |  |  | 
4 | COc1cc2c(cc1OCCCC(=O)Nc1ncc(C(=O)Nc3ccccc3)s1)N=C[C@@H]1Cc3ccccc3CN1C2=O [(Ib-04)] | 5.6 | 2.6 | 2.7 | 0.78 |  |  |  | 
5 | COc1cc2c(cc1OCCCC(=O)Nc1nc(C(=O)Nc3ccccc3)cs1)N=C[C@@H]1Cc3ccccc3CN1C2=O [(Ib-05)] | 0.23 | 0.11 | 0.12 | 0.27 |  |  |  | 
6 | COc1cc2c(cc1OCCCC(=O)Nc1cc(C(=O)Nc3ccc(-n4cnc(C)n4)c(C(F)F)c3)n(C)c1)N=C[C@@H]1Cc3ccccc3CN1C2=O [(Ib-09)] | 0.05 | 0.035 | 0.039 | 0.12 |  |  |  | 
7 | COc1cc2c(cc1OCCCC(=O)Nc1cc(C(=O)Nc3ccc(-n4cnc(C)n4)c(OCC(F)F)c3)n(C)c1)N=C[C@@H]1Cc3ccccc3CN1C2=O [(Ib-11)] | 0.98 | 0.12 | 0.026 | 0.1 |  |  |  | 
8 | COc1cc2c(cc1OCCCC(=O)Nc1cc(C(=O)Nc3ccc(-n4cnc(C)n4)c(OC)c3)n(C)c1)N=C[C@@H]1Cc3ccccc3CN1C2=O [(Ib-13)] |  |  |  |  | 0.039 | 0.14 | 0.036 | 0.17
9 | COc1cc2c(cc1OCCCC(=O)Nc1cc(C(=O)Nc3ccc(-c4cccc(C(=O)OC(C)C)c4)cc3)n(C)c1)N=C[C@@H]1Cc3ccccc3CN1C2=O [(Ib-14)] | 0.67 | 0.049 | 0.07 | 0.18 |  |  |  | 
10 | COc1ccc(-c2ccc(NC(=O)c3cc(NC(=O)CCCOc4cc5c(cc4OC)C(=O)N4Cc6ccccc6C[C@H]4C=N5)cn3C)cc2)cc1 [(Ib-15)] | < 0.004 | < 0.004 | 0.002 | < 0.004 |  |  |  | 
11 | COc1cc2c(cc1OCCCC(=O)Nc1cc(C(=O)Nc3ccc(-n4cncn4)cc3)n(C)c1)N=C[C@@H]1Cc3ccccc3CN1C2=O [(Ib-17)] | < 0.004 | 0.009 | 0.011 | 0.028 |  |  |  | 
12 | COc1cc2c(cc1OCCCC(=O)Nc1cc(C(=O)Nc3ccc(-n4ccnc4)cc3)n(C)c1)N=C[C@@H]1Cc3ccccc3CN1C2=O [(Ib-22)] | 0.18 | 0.24 | 0.088 | 0.91 |  |  |  | 
13 | COc1cc2c(cc1OCCCC(=O)Nc1cc(C(=O)Nc3ccc(-c4cocn4)cc3)n(C)c1)N=C[C@@H]1Cc3ccccc3CN1C2=O [(Ib-23)] | 0.036 | 0.014 | 0.007 | 0.022 |  |  |  | 
14 | COc1cc2c(cc1OCCCC(=O)Nc1cc(C(=O)Nc3cnn(-c4ccccc4)c3)n(C)c1)N=C[C@@H]1Cc3ccccc3CN1C2=O [(Ib-24)] | 0.053 | 0.074 | 0.008 | 0.16 |  |  |  | 
15 | COC(=O)c1nc(-c2ccc(NC(=O)c3cc(NC(=O)CCCOc4cc5c(cc4OC)C(=O)N4Cc6ccccc6C[C@H]4C=N5)cn3C)cc2)cn1C [(Ib-25)] | 0.15 | 0.084 | 0.057 | 0.35 |  |  |  | 
16 | COc1cc2c(cc1OCCCC(=O)Nc1cc(C(=O)Nc3cc(C)c(-n4cncn4)c(C)c3)n(C)c1)N=C[C@@H]1Cc3ccccc3CN1C2=O [(Ib-28)] | 0.72 | 0.18 | 0.18 | 0.4 |  |  |  | 
17 | COc1cc2c(cc1OCCCC(=O)Nc1cc(C(=O)Nc3ccc4c(c3)oc3ccccc34)n(C)c1)N=C[C@@H]1Cc3ccccc3CN1C2=O [(Ib-33)] | < 0.004 | < 0.004 | < 0.004 | 0.052 |  |  |  | 
18 | COc1cc2c(cc1OCCCC(=O)Nc1cc(C(=O)Nc3ccc4c(c3)Cc3cc(N)ccc3-4)n(C)c1)N=C[C@@H]1Cc3ccccc3CN1C2=O [(Ib-34)] | < 0.004 | 0.006 | < 0.004 | 0.025 |  |  |  | 
19 | COc1cc2c(cc1OCCCC(=O)Nc1cc(C(=O)Nc3cccc(OCc4ccccc4)n3)n(C)c1)N=C[C@@H]1Cc3ccccc3CN1C2=O [(Ib-36)] | 22 | 3.7 | 3.7 | 2.2 |  |  |  | 
20 | COc1cc2c(cc1OCCCC(=O)Nc1cc(C(=O)Nc3cnc4c(c3)ncn4C)n(C)c1)N=C[C@@H]1Cc3ccccc3CN1C2=O [(Ib-37)] | 1.2 | 1.6 | 1.7 | 5.2 |  |  |  | 
21 | COC(=O)c1cc(NC(=O)CCCOc2cc3c(cc2OC)C(=O)N2Cc4ccccc4C[C@H]2C=N3)cn1C [(Ib-38)] | 1.1 | 1.1 | 1.1 | 0.66 |  |  |  | 
22 | COC(=O)c1cc(-c2ccc(NC(=O)c3cc(NC(=O)CCCOc4cc5c(cc4OC)C(=O)N4Cc6ccccc6C[C@H]4C=N5)cn3C)cc2)cn1C [(Ib-39)] | 0.006 | 0.002 | 0.003 | 0.011 |  |  |  | 

Second part, led by results:

Row | IC50 ([1]; H226 cells) [nM] | IC50 [2] [nM] | IC50 ([3]; HCT116 cells) [nM] | IC50 ([4]; OVCAR3 cells) [nM] | Structure (SMILES) | IC50 ([1]; Homo sapiens, NCI-H226, H226 cells) [nM] | IC50 ([2]; Homo sapiens) [nM] | IC50 ([3]; Homo sapiens, HCT-116, HCT116 cells) [nM] | IC50 ([4]; Homo sapiens, OVCAR-3, OVCAR3 cells) [nM]
23 | < 0.004 | 0.009 | 0.008 | 0.031 | COc1cc2c(cc1OCCCC(=O)Nc1cc(C(=O)Nc3ccc(-n4cnc(C)n4)nc3)n(C)c1)N=C[C@@H]1Cc3ccccc3CN1C2=O [(Ib-06)] |  |  |  | 
24 | 0.02 | 0.073 | 0.018 | 0.024 | COc1cc2c(cc1OCCCC(=O)Nc1cc(C(=O)Nc3ccc(-n4cnc(Cl)c4)nc3)n(C)c1)N=C[C@@H]1Cc3ccccc3CN1C2=O [(Ib-07)] |  |  |  | 
25 | 0.007 | 0.006 | < 0.004 | 0.013 | COc1cc2c(cc1OCCCC(=O)Nc1cc(C(=O)Nc3ccc(-n4cnc(C)n4)c(F)c3)n(C)c1)N=C[C@@H]1Cc3ccccc3CN1C2=O [(Ib-08)] |  |  |  | 
26 | 0.018 | 0.026 | 0.014 | 0.037 | COc1cc2c(cc1OCCCC(=O)Nc1cc(C(=O)Nc3ccc(-n4cnc(C(F)F)n4)c(OC)c3)n(C)c1)N=C[C@@H]1Cc3ccccc3CN1C2=O [(Ib-10] |  |  |  | 
27 | 0.059 | 0.027 | 0.023 | 0.074 | COc1cc2c(cc1OCCCC(=O)Nc1cc(C(=O)Nc3ccc(-n4cnc(C)n4)c(OC(F)F)c3)n(C)c1)N=C[C@@H]1Cc3ccccc3CN1C2=O [(Ib-12)] |  |  |  | 
28 | < 0.004 | < 0.004 | < 0.004 | 0.12 | COc1cc2c(cc1OCCCC(=O)Nc1cc(C(=O)Nc3ccc(-n4cnc(C)n4)cc3)n(C)c1)N=C[C@@H]1Cc3ccccc3CN1C2=O [(Ib-16)] |  |  |  | 
29 | 0.11 | 0.052 | 0.055 | 0.2 | COc1cc2c(cc1OCCCC(=O)Nc1cc(C(=O)Nc3ccc(-n4cnc(C(F)F)c4)c(OC)c3)n(C)c1)N=C[C@@H]1Cc3ccccc3CN1C2=O [(Ib-18)] |  |  |  | 
30 | 0.11 | 0.045 | 0.038 | 0.23 | COc1cc2c(cc1OCCCC(=O)Nc1cc(C(=O)Nc3ccc(-n4cnc(Cl)c4)c(OC)c3)n(C)c1)N=C[C@@H]1Cc3ccccc3CN1C2=O [(Ib-19)] |  |  |  | 
31 | 0.031 | 0.014 | 0.027 | 0.1 | COc1cc2c(cc1OCCCC(=O)Nc1cc(C(=O)Nc3ccc(-n4cnc(Cl)c4)c(F)c3)n(C)c1)N=C[C@@H]1Cc3ccccc3CN1C2=O [(Ib-20)] |  |  |  | 
32 | 0.19 | 0.091 | 0.057 | 0.35 | COc1cc2c(cc1OCCCC(=O)Nc1cc(C(=O)Nc3ccc(-n4cnc(C)c4)c(OC)c3)n(C)c1)N=C[C@@H]1Cc3ccccc3CN1C2=O [(Ib-21)] |  |  |  | 
33 | < 0.004 | < 0.004 | 0.025 | 0.44 | COc1cc2c(cc1OCCCC(=O)Nc1cc(C(=O)Nc3ccc(-n4cnc(C)n4)c(O)c3)n(C)c1)N=C[C@@H]1Cc3ccccc3CN1C2=O [(Ib-26)] |  |  |  | 
34 | 0.067 | 0.021 | 0.02 | 0.15 | C=CCOc1cc(NC(=O)c2cc(NC(=O)CCCOc3cc4c(cc3OC)C(=O)N3Cc5ccccc5C[C@H]3C=N4)cn2C)ccc1-n1cnc(C)n1 [(Ib-27)] |  |  |  | 
35 | 0.1 | 0.042 | 0.041 | 0.16 | COc1cc2c(cc1OCCCC(=O)Nc1cc(C(=O)Nc3ccc(-n4cncn4)c(OC)c3)n(C)c1)N=C[C@@H]1Cc3ccccc3CN1C2=O [(Ib-29)] |  |  |  | 
36 | 0.66 | 0.37 | 0.1 | 0.76 | COc1cc2c(cc1OCCCC(=O)Nc1cc(C(=O)Nc3ccc(-c4ncc[nH]4)cc3)n(C)c1)N=C[C@@H]1Cc3ccccc3CN1C2=O [(Ib-30)] |  |  |  | 
37 | 0.28 | 0.23 | 0.078 | 0.94 | COc1cc2c(cc1OCCCC(=O)Nc1cc(C(=O)Nc3ccc4c(c3)OCc3nncn3-4)n(C)c1)N=C[C@@H]1Cc3ccccc3CN1C2=O [(Ib-31)] |  |  |  | 
38 | 3.1 | 0.41 | 0.3 | 1.6 | COc1cc2c(cc1OCCCC(=O)Nc1cc(C(=O)Nc3ccc4c(c3)-n3cnnc3CO4)n(C)c1)N=C[C@@H]1Cc3ccccc3CN1C2=O [(Ib-32)] |  |  |  | 
39 | < 0.004 | < 0.004 | 0.047 | 0.11 | COc1ccc(NC(=O)c2cc(NC(=O)CCCOc3cc4c(cc3OC)C(=O)N3Cc5ccccc5C[C@H]3C=N4)cn2C)nc1 [(Ib-35)] |  |  |  | 

From patent US10398783B2, “Antiproliferative compounds and conjugates made therefrom” (BRISTOL-MYERS SQUIBB COMPANY, priority 2016, dated 2019)
